Reference: ChEMBL document CHEMBL3991601, “The target landscape of clinical kinase drugs” (Science, 2017)
Where a name gives a salt, the structure may show the parent alone. Active and inactive are the calls of the source.

Assays:
[1] = molecular target: T1, Serine/threonine-protein kinase ULK1 (Homo sapiens, UniProt O75385)
T1 sequence (O75385 whole entry): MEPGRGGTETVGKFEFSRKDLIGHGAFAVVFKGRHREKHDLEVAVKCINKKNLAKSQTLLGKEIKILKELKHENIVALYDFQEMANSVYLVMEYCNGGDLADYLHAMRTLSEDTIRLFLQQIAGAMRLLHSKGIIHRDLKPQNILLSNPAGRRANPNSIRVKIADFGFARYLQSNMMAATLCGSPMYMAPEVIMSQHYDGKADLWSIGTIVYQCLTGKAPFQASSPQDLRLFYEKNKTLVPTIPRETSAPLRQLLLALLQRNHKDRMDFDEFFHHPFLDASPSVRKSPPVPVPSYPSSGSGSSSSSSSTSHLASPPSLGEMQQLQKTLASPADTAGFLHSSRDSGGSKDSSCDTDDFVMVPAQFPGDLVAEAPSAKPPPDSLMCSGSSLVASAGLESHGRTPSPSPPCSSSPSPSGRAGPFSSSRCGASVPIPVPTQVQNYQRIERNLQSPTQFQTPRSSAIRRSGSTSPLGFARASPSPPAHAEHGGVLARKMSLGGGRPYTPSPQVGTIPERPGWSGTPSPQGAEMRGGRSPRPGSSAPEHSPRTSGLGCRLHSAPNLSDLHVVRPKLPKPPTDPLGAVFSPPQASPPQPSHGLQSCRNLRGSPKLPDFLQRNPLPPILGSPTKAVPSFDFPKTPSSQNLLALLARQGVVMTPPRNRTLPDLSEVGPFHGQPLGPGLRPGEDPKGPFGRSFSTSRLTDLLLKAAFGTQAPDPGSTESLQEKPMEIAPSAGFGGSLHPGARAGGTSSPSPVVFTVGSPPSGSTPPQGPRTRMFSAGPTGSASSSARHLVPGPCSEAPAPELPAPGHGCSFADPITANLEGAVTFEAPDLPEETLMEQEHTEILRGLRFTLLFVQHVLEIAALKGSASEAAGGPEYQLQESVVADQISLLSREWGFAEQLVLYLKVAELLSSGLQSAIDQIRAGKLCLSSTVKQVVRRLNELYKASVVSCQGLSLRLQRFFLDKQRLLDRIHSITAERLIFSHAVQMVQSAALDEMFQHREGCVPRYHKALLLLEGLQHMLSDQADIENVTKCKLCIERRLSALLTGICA

Ephrin type-B receptor 3 = molecular target: T2, Ephrin type-B receptor 3 (Homo sapiens, UniProt P54753)
T2 sequence (P54753 whole entry): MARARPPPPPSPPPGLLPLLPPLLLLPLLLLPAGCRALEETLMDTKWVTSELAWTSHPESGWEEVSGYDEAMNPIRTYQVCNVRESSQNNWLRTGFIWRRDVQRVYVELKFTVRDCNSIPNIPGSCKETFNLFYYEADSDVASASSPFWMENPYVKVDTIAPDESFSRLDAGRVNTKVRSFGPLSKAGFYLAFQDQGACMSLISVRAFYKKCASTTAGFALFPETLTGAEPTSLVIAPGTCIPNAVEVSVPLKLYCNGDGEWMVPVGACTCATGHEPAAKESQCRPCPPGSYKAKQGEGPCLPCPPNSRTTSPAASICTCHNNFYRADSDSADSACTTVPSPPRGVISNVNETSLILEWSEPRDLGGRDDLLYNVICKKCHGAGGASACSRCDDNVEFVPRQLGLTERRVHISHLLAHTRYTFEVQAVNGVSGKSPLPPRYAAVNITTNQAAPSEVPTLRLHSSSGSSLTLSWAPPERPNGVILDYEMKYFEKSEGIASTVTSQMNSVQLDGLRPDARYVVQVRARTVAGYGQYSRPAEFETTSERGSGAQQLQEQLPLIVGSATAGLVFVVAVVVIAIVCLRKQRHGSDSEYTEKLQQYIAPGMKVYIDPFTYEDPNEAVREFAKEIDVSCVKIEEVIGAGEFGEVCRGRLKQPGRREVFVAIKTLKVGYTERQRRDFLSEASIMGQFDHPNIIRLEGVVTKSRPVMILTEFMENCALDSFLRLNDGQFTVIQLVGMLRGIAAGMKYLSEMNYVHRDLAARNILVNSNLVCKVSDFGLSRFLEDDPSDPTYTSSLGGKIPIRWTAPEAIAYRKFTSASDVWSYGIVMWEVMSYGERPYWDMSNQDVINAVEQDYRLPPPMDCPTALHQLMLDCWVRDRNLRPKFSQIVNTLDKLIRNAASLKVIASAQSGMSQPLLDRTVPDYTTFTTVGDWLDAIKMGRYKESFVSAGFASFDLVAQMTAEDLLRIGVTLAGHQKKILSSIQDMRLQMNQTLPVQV

[2] = molecular target: NADH dehydrogenase [ubiquinone] 1 alpha subcomplex subunit 13 (Homo sapiens, UniProt Q9P0J0)
[3] = molecular target: T3, Tyrosine-protein kinase Tec (Homo sapiens, UniProt P42680)
T3 sequence (P42680 whole entry): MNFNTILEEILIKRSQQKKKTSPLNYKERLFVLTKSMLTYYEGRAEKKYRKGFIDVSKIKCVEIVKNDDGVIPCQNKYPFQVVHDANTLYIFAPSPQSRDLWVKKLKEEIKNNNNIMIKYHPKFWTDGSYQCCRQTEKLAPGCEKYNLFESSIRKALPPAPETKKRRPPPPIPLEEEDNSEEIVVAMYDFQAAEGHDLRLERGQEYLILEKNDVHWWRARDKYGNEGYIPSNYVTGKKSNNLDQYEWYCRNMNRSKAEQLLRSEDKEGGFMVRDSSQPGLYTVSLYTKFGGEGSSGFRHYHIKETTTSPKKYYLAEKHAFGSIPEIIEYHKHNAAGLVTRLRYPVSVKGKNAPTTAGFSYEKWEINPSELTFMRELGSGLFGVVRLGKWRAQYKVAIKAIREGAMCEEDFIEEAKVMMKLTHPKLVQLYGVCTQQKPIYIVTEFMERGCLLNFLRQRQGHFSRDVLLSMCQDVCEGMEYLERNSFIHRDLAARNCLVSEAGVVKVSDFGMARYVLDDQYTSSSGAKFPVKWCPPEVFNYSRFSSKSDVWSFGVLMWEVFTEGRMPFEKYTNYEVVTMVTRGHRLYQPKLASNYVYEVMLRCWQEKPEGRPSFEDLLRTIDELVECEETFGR

[4] = molecular target: Structural maintenance of chromosomes protein 2 (Homo sapiens, UniProt O95347)
Further: in the data inactive means no Kd found up to 30 µM.

Chain of NADH dehydrogenase [ubiquinone] 1 alpha subcomplex subunit 13 (Q9P0J0 whole entry, one chain of several): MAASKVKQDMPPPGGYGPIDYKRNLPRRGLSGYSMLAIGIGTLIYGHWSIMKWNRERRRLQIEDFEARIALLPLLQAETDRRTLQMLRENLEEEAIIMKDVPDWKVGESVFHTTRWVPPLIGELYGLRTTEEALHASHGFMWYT
Chain of Structural maintenance of chromosomes protein 2 (O95347 whole entry): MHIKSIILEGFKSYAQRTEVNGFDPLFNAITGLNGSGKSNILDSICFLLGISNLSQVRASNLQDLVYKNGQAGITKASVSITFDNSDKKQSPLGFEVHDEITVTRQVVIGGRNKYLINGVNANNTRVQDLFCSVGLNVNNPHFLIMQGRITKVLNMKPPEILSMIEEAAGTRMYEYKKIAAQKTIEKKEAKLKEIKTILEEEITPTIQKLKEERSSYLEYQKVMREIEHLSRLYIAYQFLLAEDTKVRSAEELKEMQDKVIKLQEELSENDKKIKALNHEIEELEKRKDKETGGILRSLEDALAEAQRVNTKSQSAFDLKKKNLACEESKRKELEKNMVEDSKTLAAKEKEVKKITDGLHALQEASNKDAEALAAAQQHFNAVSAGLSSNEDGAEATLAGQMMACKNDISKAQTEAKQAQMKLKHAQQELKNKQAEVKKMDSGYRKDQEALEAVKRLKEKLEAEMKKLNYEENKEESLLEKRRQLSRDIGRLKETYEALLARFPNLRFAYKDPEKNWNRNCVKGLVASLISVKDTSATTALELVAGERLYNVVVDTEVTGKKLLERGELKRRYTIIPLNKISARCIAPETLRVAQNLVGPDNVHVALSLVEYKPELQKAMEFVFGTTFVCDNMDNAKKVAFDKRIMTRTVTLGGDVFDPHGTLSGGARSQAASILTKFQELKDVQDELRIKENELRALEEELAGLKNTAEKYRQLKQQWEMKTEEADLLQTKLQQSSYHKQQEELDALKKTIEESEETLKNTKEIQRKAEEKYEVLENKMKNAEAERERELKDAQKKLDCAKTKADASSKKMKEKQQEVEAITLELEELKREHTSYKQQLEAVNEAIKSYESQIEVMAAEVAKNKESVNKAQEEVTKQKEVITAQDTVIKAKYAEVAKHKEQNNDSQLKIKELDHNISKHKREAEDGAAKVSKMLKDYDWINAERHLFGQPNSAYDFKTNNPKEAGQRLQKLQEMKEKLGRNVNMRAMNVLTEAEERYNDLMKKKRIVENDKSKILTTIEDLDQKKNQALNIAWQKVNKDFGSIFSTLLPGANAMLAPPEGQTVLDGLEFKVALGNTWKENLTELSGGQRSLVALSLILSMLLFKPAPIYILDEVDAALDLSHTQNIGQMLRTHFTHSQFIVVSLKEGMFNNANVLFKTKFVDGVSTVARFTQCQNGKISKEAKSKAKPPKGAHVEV

SMILES | Kd [1] | Kd (Ephrin type-B receptor 3) | Kd [2] | Kd [3] | Kd [4]
Cc1cc(C(=O)NOCCO)c(Nc2ccc(I)cc2F)n(C)c1=O [AZD-8330] | > 30 µM (inactive) | > 30 µM (inactive) | > 30 µM (inactive) | > 30 µM (inactive) | > 30 µM (inactive)
Cn1cnc2c(F)c(Nc3ccc(Br)cc3F)c(C(=O)NOCCO)cc21 [BINIMETINIB] | > 30 µM (inactive) | > 30 µM (inactive) | > 30 µM (inactive) | > 30 µM (inactive) | > 30 µM (inactive)
CCn1c(C(=O)N(C2CC2)C2CC2)cc2c3c(ncn3C)c(Nc3cc(C)n(C)n3)nc21 [BMS-911543] | > 30 µM (inactive) | > 30 µM (inactive) | > 30 µM (inactive) | > 30 µM (inactive) | > 30 µM (inactive)
COc1cc2ncnc(Oc3cccc(NC(=O)Nc4cc(C(C)(C)C(F)(F)F)on4)c3)c2cc1OC [CEP-32496] | > 30 µM (inactive) | > 30 µM (inactive) | > 30 µM (inactive) | > 30 µM (inactive) | > 30 µM (inactive)
Cc1cc(Nc2ncc(Cl)c(Nc3ccccc3S(=O)(=O)C(C)C)n2)c(OC(C)C)cc1C1CCNCC1 [CERITINIB] | > 30 µM (inactive) | > 30 µM (inactive) | > 30 µM (inactive) | > 30 µM (inactive) | > 30 µM (inactive)
COc1c(OCCCN2CCOCC2)ccc2c1N=C(NC(=O)c1cnc(N)nc1)N1CCN=C21 [COPANLISIB] | > 30 µM (inactive) | > 30 µM (inactive) | > 30 µM (inactive) | > 30 µM (inactive) | > 30 µM (inactive)
COCC(=O)NC/C=C/c1ccc2ncnc(Nc3ccc(Oc4ccc(C)nc4)c(C)c3)c2c1 [CP-724714] | > 30 µM (inactive) | > 30 µM (inactive) | > 30 µM (inactive) | > 30 µM (inactive) | > 30 µM (inactive)
C#Cc1cccc(Nc2ncnc3cc(OC)c(OCCCCCCC(=O)NO)cc23)c1 [CUDC-101] | > 30 µM (inactive) | > 30 µM (inactive) | > 30 µM (inactive) | > 30 µM (inactive) | > 30 µM (inactive)
CCS(=O)(=O)N1CCN(c2ccc(Nc3ncc(C(N)=O)c(NC4CC4)n3)cc2)CC1 [Cerdulatinib Hydrochloride] | 2.82 µM | > 30 µM (inactive) | > 30 µM (inactive) | > 30 µM (inactive) | > 30 µM (inactive)
CC(C)(C)c1nc(-c2cccc(NS(=O)(=O)c3c(F)cccc3F)c2F)c(-c2ccnc(N)n2)s1 [DABRAFENIB] | 0.188 µM (active) | > 30 µM (inactive) | > 30 µM (inactive) | > 30 µM (inactive) | > 30 µM (inactive)
Cc1nc2cc(-n3ncc(C(=O)c4cc5ccccc5[nH]4)c3N)ccc2[nH]1 [FGFR INHIBITOR DEBIO 1347] | > 30 µM (inactive) | > 30 µM (inactive) | > 30 µM (inactive) | > 30 µM (inactive) | > 30 µM (inactive)
O=C(Nc1nc2cccc(-c3ccc(CN4CCS(=O)(=O)CC4)cc3)n2n1)C1CC1 [FILGOTINIB] | > 30 µM (inactive) | > 30 µM (inactive) | > 30 µM (inactive) | > 30 µM (inactive) | > 30 µM (inactive)
Cc1cccc(-c2nn3c(c2-c2ccnc4ccc(C(N)=O)cc24)CCC3)n1 [GALUNISERTIB] | > 30 µM (inactive) | > 30 µM (inactive) | > 30 µM (inactive) | > 30 µM (inactive) | > 30 µM (inactive)
CCn1cc(-c2ccnc3[nH]c(-c4cccc(CN(C)C)c4)cc23)c(-c2ccc(NC(=O)N(C)C)cc2)n1 [GSK-1070916] | > 30 µM (inactive) | > 30 µM (inactive) | > 30 µM (inactive) | > 30 µM (inactive) | > 30 µM (inactive)
COc1ccc(S(=O)(=O)N(C(C)=O)c2ccccc2/C=C/c2cc[n+]([O-])cc2)cc1 [HMN-214] | > 30 µM (inactive) | > 30 µM (inactive) | > 30 µM (inactive) | > 30 µM (inactive) | > 30 µM (inactive)
O=C(Nc1cc(C(F)(F)F)cc(C(F)(F)F)c1)c1cc(Cl)ccc1O [IMD-0354] | > 30 µM (inactive) | > 30 µM (inactive) | > 30 µM (inactive) | > 30 µM (inactive) | > 30 µM (inactive)
CNC(=O)c1cccc2cc(Oc3ccnc4cc(OCC5(N)CC5)c(OC)cc34)ccc12 [LUCITANIB] | > 30 µM (inactive) | > 30 µM (inactive) | > 30 µM (inactive) | > 30 µM (inactive) | > 30 µM (inactive)
NC1(c2ccc(-c3nc4ccn5c(=O)[nH]nc5c4cc3-c3ccccc3)cc2)CCC1 [MK-2206] | > 30 µM (inactive) | > 30 µM (inactive) | > 30 µM (inactive) | > 30 µM (inactive) | > 30 µM (inactive)
CN(C[C@@H]1COCCO1)S(=O)(=O)Nc1ccc2ccc3ncc(-c4cnn(C)c4)cc3c(=O)c2c1 [MK-2461] | > 30 µM (inactive) | > 30 µM (inactive) | > 30 µM (inactive) | > 30 µM (inactive) | > 30 µM (inactive)
Cn1cc(-c2cnc3ccc4ccc(CS(=O)(=O)NCc5ccccn5)cc4c(=O)c3c2)cn1 [MK-8033] | > 30 µM (inactive) | > 30 µM (inactive) | > 30 µM (inactive) | > 30 µM (inactive) | > 30 µM (inactive)
FC(F)(F)c1ccc(/C=C/c2nc(COc3ccc(CCCCn4ccnn4)cc3)co2)cc1 [MUBRITINIB] | > 30 µM (inactive) | > 30 µM (inactive) | > 30 µM (inactive) | > 30 µM (inactive) | > 30 µM (inactive)
COc1ncc(-c2ccc3nccc(-c4ccnnc4)c3c2)cc1NS(=O)(=O)c1ccc(F)cc1F [OMIPALISIB] | > 30 µM (inactive) | > 30 µM (inactive) | > 30 µM (inactive) | > 30 µM (inactive) | > 30 µM (inactive)
Cc1[nH]c(/C=C2\C(=O)Nc3ccccc32)c(C)c1CCC(=O)O [ORANTINIB] | > 30 µM (inactive) | > 30 µM (inactive) | > 30 µM (inactive) | > 30 µM (inactive) | > 30 µM (inactive)
